What was measured:
Type in all cases: functional, cell-based
CH1 = assay: The compound was tested for cytotoxic potency against CH1 human tumor cell lines.
SK-OV-3 = assay: The compound was tested for cytotoxic potency against SKOV-3 human tumor cell lines.
A2780 [1] = assay: The compound was tested for cytotoxic potency against A2780R human tumor cell lines.
A2780 [2] = assay: The compound was tested for cytotoxic potency against A2780 human tumor cell lines.
A2780 [3] = assay: The compound was tested for cytotoxic potency against A2780 human tumor cell lines

Compound	IC50 (CH1; Homo sapiens, CH1) [µM]	IC50 (SK-OV-3) [µM]	IC50 (A2780 [1]; Homo sapiens, A2780) [µM]	IC50 (A2780 [2]; Homo sapiens, A2780) [µM]	IC50 (CH1; ch1) [µM]	IC50 (A2780 [1]; a2780) [µM]	IC50 (A2780 [2]; a2780) [µM]	IC50 (A2780 [3]) [µM]
N=C(NC1CCCCC1)c1ccc(-c2ccc(-c3ccc(C(=N)NC4CCCCC4)cc3)o2)cc1	2.1	5.2	2.5	4.8				
N=C(NC1CCCC1)c1ccc(-c2ccc(-c3ccc(C(=N)NC4CCCC4)cc3)o2)cc1	3.6	17	3.8	12				
N=C(NC1CC1)c1ccc(-c2ccc(-c3ccc(C(=N)NC4CC4)cc3)o2)cc1	18	48	15.5	37				
CC(C)CNC(=N)c1ccc(-c2ccc(-c3ccc(C(=N)NCC(C)C)cc3)o2)cc1	9	52	12	22.5				
CISPLATIN					0.1	3.3	0.3	
N=C(NCC1CC1)c1ccc(-c2ccc(-c3ccc(C(=N)NCC4CC4)cc3)o2)cc1	15	56	13	36				
N=C(NC1CCC1)c1ccc(-c2ccc(-c3ccc(C(=N)NC4CCC4)cc3)o2)cc1	4.2	25	3.3	11				
CC(C)NC(=N)c1ccc(-c2ccc(-c3ccc(C(=N)NC(C)C)cc3)o2)cc1	44.5	20.5	6.4	38				
CCC(CC)NC(=N)c1ccc(-c2ccc(-c3ccc(C(=N)NC(CC)CC)cc3)o2)cc1	16	31	7.1	32.5				
N=C(N)c1ccc(-c2ccc(-c3ccc(C(=N)N)cc3)o2)cc1 [FURAMIDINE]	46.5	42.5	15.5					46
